Laboratory results from patent publication US11827657B2, “Boron containing pyrazole compounds, compositions comprising them, methods and uses thereof” (BOEHRINGER INGELHEIM ANIMAL HEALTH USA INC., priority 2020, dated 2023).

target: JAK1 (Homo sapiens, UniProt P23458); assay: Biochemical Kinase Assay (JAK), 33P-ATP filter-binding; conditions: Biochemical Kinase Inhibition Assay; potency level of IC50; read-out: JAK1 (range)
Method in brief: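 Radiometric filter-binding with 33P-ATP in pH 7.5 Hepes buffer with 10 mM MgCl2 and 1% DMSO. Compound preincubated with kinase and substrate 20 min at room temperature, reaction run 2 h at room temperature, spotted on P81 paper to give IC50.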

Sequence of JAK1 (P23458 whole entry, species assumed): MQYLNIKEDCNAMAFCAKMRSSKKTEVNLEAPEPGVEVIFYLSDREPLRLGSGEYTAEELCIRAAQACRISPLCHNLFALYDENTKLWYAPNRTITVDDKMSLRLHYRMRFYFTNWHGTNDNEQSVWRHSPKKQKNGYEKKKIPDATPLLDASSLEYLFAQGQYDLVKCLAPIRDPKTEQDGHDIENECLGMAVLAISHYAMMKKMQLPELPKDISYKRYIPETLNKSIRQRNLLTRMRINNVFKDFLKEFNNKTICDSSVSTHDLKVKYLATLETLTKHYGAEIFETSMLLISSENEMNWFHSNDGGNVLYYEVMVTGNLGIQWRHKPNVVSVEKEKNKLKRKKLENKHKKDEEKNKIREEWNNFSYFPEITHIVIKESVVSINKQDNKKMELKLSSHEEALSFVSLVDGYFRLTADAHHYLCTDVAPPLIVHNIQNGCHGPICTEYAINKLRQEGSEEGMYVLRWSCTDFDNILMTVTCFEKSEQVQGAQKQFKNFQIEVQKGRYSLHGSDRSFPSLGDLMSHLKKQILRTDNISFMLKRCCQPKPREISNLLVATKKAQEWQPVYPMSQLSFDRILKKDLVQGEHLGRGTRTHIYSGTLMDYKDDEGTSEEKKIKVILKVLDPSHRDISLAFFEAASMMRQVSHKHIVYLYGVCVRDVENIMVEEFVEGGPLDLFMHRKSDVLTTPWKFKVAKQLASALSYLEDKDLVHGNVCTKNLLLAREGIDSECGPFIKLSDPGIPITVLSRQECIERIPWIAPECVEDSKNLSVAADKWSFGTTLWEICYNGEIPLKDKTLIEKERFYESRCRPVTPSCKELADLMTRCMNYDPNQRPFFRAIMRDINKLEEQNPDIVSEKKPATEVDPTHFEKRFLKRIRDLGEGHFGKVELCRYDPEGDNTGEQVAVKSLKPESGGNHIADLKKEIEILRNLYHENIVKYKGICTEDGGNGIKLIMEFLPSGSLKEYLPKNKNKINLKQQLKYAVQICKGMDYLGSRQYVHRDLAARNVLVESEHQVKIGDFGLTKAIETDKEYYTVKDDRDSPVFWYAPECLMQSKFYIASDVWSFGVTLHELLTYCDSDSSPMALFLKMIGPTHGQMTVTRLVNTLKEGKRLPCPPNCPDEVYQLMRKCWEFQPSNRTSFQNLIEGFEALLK

SMILES	IC50 [nM]
CC(C)C1=Cc2cc(Nc3nn(C4COCCC4C#N)cc3C(N)=O)ccc2OB1O (stereo not drawn) [Example 48, 1-(trans-4-cyanotetrahydro-2H-pyran-3-yl)-3-((2-hydroxy-3-isopropyl-2H-benzo[e][1,2]oxaborinin-6-yl)amino)-1H-pyrazole-4-carboxamide]	< 10
N#CC1CCOCC1n1cc(C(N)=O)c(Nc2ccc3c(c2)C=CB(O)O3)n1 (stereo not drawn) [Example 51, 1-(trans-4-cyanotetrahydro-2H-pyran-3-yl)-3-[(2-hydroxy-1,2-benzoxaborinin-6-yl)amino]pyrazole-4-carboxamide]	< 10
N#CC1CCOCC1n1cc(C(N)=O)c(Nc2cc(Cl)c3c(c2)COB3O)n1 (stereo not drawn) [Example 52, 3-((7-chloro-1-hydroxy-1,3-dihydrobenzo[c][1,2]oxaborol-5-yl)amino)-1-(trans-4-cyanotetrahydro-2H-pyran-3-yl)-1H-pyrazole-4-carboxamide]	< 10
